# Like-named read-outs stand apart in the source and are kept apart here.
# Columns and labels:
# [1] = tested on: anoxic ventricular fibrillation in mice; test: Cardiac antifibrillatory activity on the mouse (Lawson test); assay type: in vivo; conditions: ip, intraperitoneal, 10 minutes before chloroform, read-out: ED 50 (protects half the mice against anoxic ventricular fibrillation)
# Method: Cardiac antifibrillatory activity of the derivatives of the invention has been verified on the mouse using the Lawson test, in accordance with the method described by J. W. Lawson, J. Pharmacol. Exp. Therp. 160, 22-31 (1968), and C. Narcisse et al., Ann. Pharm. Fr. 37, 325-330 (1979).
# The mice (20 per dose) received an intraperitoneal injection of the derivative 10 minutes before being placed in a chloroform saturated atmosphere. As soon as respiratory arrest occurred, the thorax was opened (5 to 10 seconds) and the state of the heart was checked: presence or absence of ventricular fibrillation. The efficacy dose 50 (ED 50) of the derivative being studied is the dose which protects half the mice against anoxic ventricular fibrillation.
# [2] = Acute toxicity (lethal dose 50) in the mouse; conditions: in vivo
# From the text: The acute toxicity of the deriatives of the invention were studied by oral administration (P.O) to the mouse (10 animals, 5 males and 5 females per dose) and calculation of the lethal dose 50 (LD 50) in accordance with the method of Litchfield and Wilcoxon (J. Pharmacol., 96, 99-113 (1949)). Table 1 gives the LD 50 values of the derivatives of the invention.
# In certain cases, the LD 50 was also studied after intraperitoneal injection (I.P.) of the derivatives.
# [3] = tested on: ventricular arrhythmias induced by aconitine in the anesthetized rat; test: Antiarrhythmic test with aconitine on the rat; assay type: in vivo
# Method: The derivatives of the invention were used in the test with aconitine on the rat. For this test, the anesthetized rat was intoxicated by an intravenous perfusion of aconitine (solution of aconitine nitrate: 15 mg/l; speed of perfusion: 0.4 ml/min) while its electrocardiogram was recorded permanently. During perfusion at constant speed, the time necessary for the appearance of ventricular arrhythmias, successively ventricular extrasystoles (ESV), ventricular tachycardium (TV) and ventricular fibrillation (FV) was measured.
# The animals were divided into a control group (untreated) and treated group (different doses). The results are expressed as a percentage of prolonging the time of the appearance of the arrhythmias in the treated groups in relation to the control group. This prolongation of arrhythmia appearance time therefore corresponds to myocardiac protection against the arrhythmic effects of aconitine.
# [4] = tested on: isolated guinea pig auricle; test: Maximum stimulation frequency test on isolated guinea pig auricle; conditions: Cavia porcellus; 10 mg/l; read-out: Δ% MFS (decrease of the maximum frequency followed)
# Method: The maximum frequency test carried out studied the maximum stimulation frequency which can cause contraction of an isolated guinea pig auricle placed in a solution containing a derivative of the invention. The measurement was carried out before (control period) and then after introduction of the derivative into the solution.
# [5] = tested on: rabbit cornea; test: Local contact anesthesia on the rabbit cornea; assay type: in vivo; conditions: solution at 0.25% or 1% by weight, eyewash instillation
# From the text: For example, the derivatives described in Examples 2, 3, 4, 6, 7 and 9 are local anesthetics (100% anesthesia) in a solution at 0.25% or 1% by weight.
# [6] = tested on: anesthetized dog; test: Hemodynamic effects on the anesthetized dog; assay type: in vivo; conditions: for (dp/dt)l/p, percentage of variation / Cardiac flow, percentage of variation / Cardiac frequency, percentage of variation / Contraction force of the myocardium, percentage of variation / Systolic arterial pressure, percentage of variation / Systolic volume, percentage of variation: Example 2 series, vs pretreatment
# Method: Cardiovascular tolerance was studied on the isolated guinea pig auricle, on the anesthetized rat and on the anesthetized dog.
# On the anesthetized dog, the results obtained with respect to hemodynamic tolerance are summarized in Table 2 below which indicates the percentages of variation of the hemodynamic parameters in relation to the pre-treatment control period for the derivatives of Examples 2 and 4.
# The parameters were recorded by means of:
# Catheters connected to pressure sensors (arterial pressure, left ventricular pressure and its first derivative dp/dt);
# Electromagnetic flowmeter on the aorta (aortic flow);
# Strain gauge placed on the left ventricular myocardium (force of myocardiac contraction).
# The derivatives were injected intraveneously, one dose approximately every 30 minutes and their effects were measured 20 minutes after the completion of the injection (length of the injection 2 minutes).
# [7] = ip, intraperitoneal (I.P.), read-out: LD 50 I.P.
# [8] = oral (P.O.), 5 males and 5 females per dose, read-out: LD 50 P.O.
# [9] = read-out: Prolongation of time of appearance of ventricular extrasystoles (ESV)
# [10] = read-out: Prolongation of time of appearance of ventricular fibrillation (FV)
# [11] = read-out: Prolongation of time of appearance of ventricular tachycardium (TV)
# [12] = anesthetized dog, i.v., cumulative dose
smiles,measurement,setting,value
Cc1c(-c2ccccc2)n[nH]c1OCCN1CCCCC1 [Example 11],ED50,[1],42.5 mg/kg
same,LD50,[2]; [7],184 mg/kg
same,LD50,[2]; [8],250 to 500 mg/kg
same,change in vivo at 10 mg/kg,[3]; [9],10%
same,change in vivo at 10 mg/kg,[3]; [10],18%
same,change in vivo at 10 mg/kg,[3]; [11],11%
same,inhibition at 10 µg/mL,[4],52%
"c1ccc(-c2cc(OCCN3CCOCC3)[nH]n2)cc1 [Example 5, 3-Phenyl-5-morpholinoethoxy-pyrazole]",ED50,[1],79 mg/kg
same,LD50,[2]; [8],1000 mg/kg
same,inhibition at 10 µg/mL,[4],12%
"Cc1c(-c2ccccc2)n[nH]c1OCCN1CCCC1 [Example 2, 3-Phenyl-4-methyl-5-pyrrolidinoethoxy-pyrazole]",local anesthesia,[5],100%
same,"(dp/dt)l/p, percentage of variation","[6]; i.v., dose 0.5 mg/kg",0%
same,"Cardiac flow, percentage of variation","[6]; i.v., dose 0.5 mg/kg",0%
same,"Cardiac frequency, percentage of variation","[6]; i.v., dose 0.5 mg/kg",0%
same,"Contraction force of the myocardium, percentage of variation","[6]; i.v., dose 0.5 mg/kg",0%
same,"Systolic arterial pressure, percentage of variation","[6]; i.v., dose 0.5 mg/kg",+4%
same,"Systolic volume, percentage of variation","[6]; i.v., dose 0.5 mg/kg",0%
same,"(dp/dt)l/p, percentage of variation","[6]; i.v., dose +1 mg/kg",-7%
same,"Cardiac flow, percentage of variation","[6]; i.v., dose +1 mg/kg",-5%
same,"Cardiac frequency, percentage of variation","[6]; i.v., dose +1 mg/kg",-8%
same,"Contraction force of the myocardium, percentage of variation","[6]; i.v., dose +1 mg/kg",0%
same,"Systolic arterial pressure, percentage of variation","[6]; i.v., dose +1 mg/kg",0%
same,"Systolic volume, percentage of variation","[6]; i.v., dose +1 mg/kg",+3%
same,"(dp/dt)l/p, percentage of variation","[6]; i.v., dose +3 mg/kg",-30%
same,"Cardiac flow, percentage of variation","[6]; i.v., dose +3 mg/kg",-5%
same,"Cardiac frequency, percentage of variation","[6]; i.v., dose +3 mg/kg",-8%
same,"Contraction force of the myocardium, percentage of variation","[6]; i.v., dose +3 mg/kg",-20%
same,"Systolic arterial pressure, percentage of variation","[6]; i.v., dose +3 mg/kg",0%
same,"Systolic volume, percentage of variation","[6]; i.v., dose +3 mg/kg",+3%
same,"(dp/dt)l/p, percentage of variation","[6]; i.v., dose +5 mg/kg",-30%
same,"Cardiac flow, percentage of variation","[6]; i.v., dose +5 mg/kg",-20%
same,"Cardiac frequency, percentage of variation","[6]; i.v., dose +5 mg/kg",-8%
same,"Contraction force of the myocardium, percentage of variation","[6]; i.v., dose +5 mg/kg",-20%
same,"Systolic arterial pressure, percentage of variation","[6]; i.v., dose +5 mg/kg",-8%
same,"Systolic volume, percentage of variation","[6]; i.v., dose +5 mg/kg",-12%
same,"(dp/dt)l/p, percentage of variation","[6]; i.v., first dose of +10 mg/kg",-38%
same,"Cardiac flow, percentage of variation","[6]; i.v., first dose of +10 mg/kg",-37%
same,"Cardiac frequency, percentage of variation","[6]; i.v., first dose of +10 mg/kg",-8%
same,"Contraction force of the myocardium, percentage of variation","[6]; i.v., first dose of +10 mg/kg",-10%
same,"Systolic arterial pressure, percentage of variation","[6]; i.v., first dose of +10 mg/kg",-12%
same,"Systolic volume, percentage of variation","[6]; i.v., first dose of +10 mg/kg",-31%
same,"(dp/dt)l/p, percentage of variation","[6]; i.v., second dose of +10 mg/kg",-46%
same,"Cardiac flow, percentage of variation","[6]; i.v., second dose of +10 mg/kg",-45%
same,"Cardiac frequency, percentage of variation","[6]; i.v., second dose of +10 mg/kg",-8%
same,"Contraction force of the myocardium, percentage of variation","[6]; i.v., second dose of +10 mg/kg",-20%
same,"Systolic arterial pressure, percentage of variation","[6]; i.v., second dose of +10 mg/kg",-20%
same,"Systolic volume, percentage of variation","[6]; i.v., second dose of +10 mg/kg",-40%
same,maximum decrease of force of ventricular myocardiac contractions,[6]; after injection of 4.5 mg/kg to 29 mg/kg,-20%
same,Cardiac frequency (result in words),"[6]; anesthetized dog, i.v.",drops moderately
same,Systolic arterial pressure (result in words),"[6]; anesthetized dog, i.v.",drops moderately
same,force of ventricular myocardiac contractions (result in words),"[6]; anesthetized dog, i.v.",decreases
same,cumulative dose after which the decrease of systolic arterial pressure appears,[6]; [12],> 4.5 mg/kg
same,cumulative dose at which a 20% drop of cardiac flow is reached,[6]; [12],greater than 9 mg/kg
same,LD50,[2]; [8],500 mg/kg
same,change in vivo at 10 mg/kg,[3]; [9],32%
same,change in vivo at 10 mg/kg,[3]; [10],44%
same,change in vivo at 10 mg/kg,[3]; [11],30%
same,inhibition at 10 µg/mL,[4],56%
"Clc1ccc(-c2cc(OCCCN3CCCCC3)[nH]n2)cc1 [Example 3, 3-p-Chlorphenyl-5-piperidinopropoxy-pyrazole]",local anesthesia,[5],100%
same,ED50,[1],35 mg/kg
same,LD50,[2]; [8],700 mg/kg
same,change in vivo at 10 mg/kg,[3]; [9],6%
same,change in vivo at 10 mg/kg,[3]; [10],46%
same,change in vivo at 10 mg/kg,[3]; [11],28%
same,inhibition at 10 µg/mL,[4],53%
Cc1c(-c2ccc(Cl)cc2)n[nH]c1OCCCN(C)C [Example 17],LD50,[2]; [7],250 to 500 mg/kg
same,LD50,[2]; [8],500 to 1000 mg/kg
same,inhibition at 10 µg/mL,[4],32%
Cc1c(-c2ccc(Cl)cc2)n[nH]c1OCCN1CCOCC1 [Example 16],LD50,[2]; [7],125 to 250 mg/kg
same,LD50,[2]; [8],500 to 1000 mg/kg
same,inhibition at 10 µg/mL,[4],28%
"CN(C)CCCOc1cc(-c2ccc(Cl)cc2)n[nH]1 [Example 1, 3-p-Chlorophenyl-5-dimethylaminopropoxy-pyrazole]",LD50,[2]; [7],250 to 500 mg/kg
same,LD50,[2]; [8],1000 mg/kg
same,inhibition at 10 µg/mL,[4],30%
c1ccc(-c2cc(OCCCN3CCCCC3)[nH]n2)cc1 [Example 13],LD50,[2]; [8],125 to 250 mg/kg
same,inhibition at 10 µg/mL,[4],44%
Cc1c(-c2ccc(Cl)cc2)n[nH]c1OCCN1CCCC1 [Example 18],LD50,[2]; [8],750 mg/kg
same,change in vivo at 10 mg/kg,[3]; [9],2%
same,change in vivo at 10 mg/kg,[3]; [10],0%
same,change in vivo at 10 mg/kg,[3]; [11],6%
same,inhibition at 10 µg/mL,[4],45%
Cc1c(-c2ccccc2)n[nH]c1OCCCN(C)C [Example 15],LD50,[2]; [8],500 to 1000 mg/kg
same,inhibition at 10 µg/mL,[4],40%
Cc1c(-c2ccccc2)n[nH]c1OCCCN1CCCCC1 [Example 14],Cardiac frequency (result in words),"[6]; anesthetized dog, i.v.",drops moderately
same,Systolic arterial pressure (result in words),"[6]; anesthetized dog, i.v.",drops moderately
same,force of ventricular myocardiac contractions (result in words),"[6]; anesthetized dog, i.v.",does not vary significantly
same,ED50,[1],62 mg/kg
same,LD50,[2]; [8],250 mg/kg
same,inhibition at 10 µg/mL,[4],40%
c1ccc(-c2cc(OCCN3CCCC3)[nH]n2)cc1 [Example 12],LD50,[2]; [8],500 to 1000 mg/kg
same,inhibition at 10 µg/mL,[4],35%
CN(C)CCCOc1cc(-c2ccccc2)[nH]n1 [Example 8],LD50,[2]; [8],1000 mg/kg
Clc1ccc(-c2cc(OCCN3CCCCC3)[nH]n2)cc1 [Example 6],local anesthesia,[5],100%
same,LD50,[2]; [8],500 mg/kg
same,change in vivo at 3 mg/kg,[3]; [9],13%
same,change in vivo at 3 mg/kg,[3]; [10],18%
same,change in vivo at 3 mg/kg,[3]; [11],21%
same,inhibition at 10 µg/mL,[4],46%
Cc1c(-c2ccc(Cl)cc2)n[nH]c1OCCCN1CCCCC1 [Example 19],Cardiac frequency (result in words),"[6]; anesthetized dog, i.v.",does not change
same,Systolic arterial pressure (result in words),"[6]; anesthetized dog, i.v.",drops moderately
same,force of ventricular myocardiac contractions (result in words),"[6]; anesthetized dog, i.v.",decreases
same,cumulative dose at which a 20% drop of cardiac flow is reached,[6]; [12],greater than 4 mg/kg
same,ED50,[1],21.5 mg/kg
same,LD50,[2]; [7],62 to 125 mg/kg
same,LD50,[2]; [8],250 mg/kg
same,change in vivo at 10 mg/kg,[3]; [9],15%
same,change in vivo at 10 mg/kg,[3]; [10],35%
same,change in vivo at 10 mg/kg,[3]; [11],15%
same,inhibition at 10 µg/mL,[4],52%
